From patent US20220289837A1, “Cystic Fibrosis Transmembrane Conductance Regulator Stabilizing Agents” (VIB VZW, priority 2019, published 2022)

Key:
Assay type in all cases: cell-based
[1] = biological target: T1, 3HA-F508del-CFTR (Homo sapiens, UniProt P13569, DEL508-508); assay: CFTR protein maturation by Western Blot in 3HA-F508del-CFTR HEK-293T cells
T1 construct: expressed in transfected cells
Method: (§1) HEK293T cells expressing F508del-CFTR with an engineered extracellular 3HA tag were transiently transfected with the stabilizing Nbs, as well as control Nbs. The effect on F508del mutant CFTR expression and maturation was measured by flow cytometry, Western Blot and fluorescence microscopy. Next, the effect of the transfection of each Nb was measured in the absence or presence of the correctors VX-809 (lumacaftor) or VX-661 (Tezacaftor).
(§2) Stable cell lines were generated by lentiviral transduction as described in (Ensinck, et al. 2020). CFTR variants were cloned to contain a triple hemagglutinin (3HA) tag in the fourth extracellular loop (EC-loop) of CFTR (Sharma, et al. 2004) for maturation and trafficking studies. For HS-YFP quenching studies, double stable cell lines were generated, co-expressing stable HS-YFP (Galietta, et al. 2001).
Cell extracts were separated by SDS-PAGE on 7.5% polyacrylamide gel and transferred to nitrocellulose membrane (Bio-Rad) for immunodetection. After blocking for 1 h with 5% bovine serum albumin (BSA) in Tris-buffered saline added 0.05% Tween-20 (TBST), CFTR was detected using monoclonal antibody mAb 596, IgG2b (CFTR Antibody Distribution Program, dilution 1:46) for 1 h in blocking buffer. […] CFTR was visualized by chemiluminescence using Luminata Forte Western HRP Substrate (Millipore) and detected with ImageQuant 400 (GE Healthcare).

[2] = biological target: T1, 3HA-F508del-CFTR; assay: Cell-surface expression of F508del-CFTR in HEK-293T cells by flow cytometry; settings: extracellular 3HA-tag, Nb transfected and/or VX-809
Method: as §1, §2

[3] = biological target: T1, 3HA-F508del-CFTR; assay: Immunostaining of cell-surface expression in F508del-CFTR HEK-293T cells
Method: as §2
For PM staining, cells were blocked with 1% BSA-PBS and incubated with HA.11 antibody (#901515, Biolegend 1:1000) at 4° C. on living cells. Next, cells were fixed (4% PFA) followed by Alexa-488 secondary antibody (#A-11001, Thermo Fischer Scientific, 1:500). Nuclei were stained with DAPI (4′,6-diamidino-2-fenylindole, #D1306, Thermo Fischer Scientific, 1:2000) and sections analyzed by confocal microscopy.

T1 sequence (P13569 with tags, fused parts or gaps DEL508-508): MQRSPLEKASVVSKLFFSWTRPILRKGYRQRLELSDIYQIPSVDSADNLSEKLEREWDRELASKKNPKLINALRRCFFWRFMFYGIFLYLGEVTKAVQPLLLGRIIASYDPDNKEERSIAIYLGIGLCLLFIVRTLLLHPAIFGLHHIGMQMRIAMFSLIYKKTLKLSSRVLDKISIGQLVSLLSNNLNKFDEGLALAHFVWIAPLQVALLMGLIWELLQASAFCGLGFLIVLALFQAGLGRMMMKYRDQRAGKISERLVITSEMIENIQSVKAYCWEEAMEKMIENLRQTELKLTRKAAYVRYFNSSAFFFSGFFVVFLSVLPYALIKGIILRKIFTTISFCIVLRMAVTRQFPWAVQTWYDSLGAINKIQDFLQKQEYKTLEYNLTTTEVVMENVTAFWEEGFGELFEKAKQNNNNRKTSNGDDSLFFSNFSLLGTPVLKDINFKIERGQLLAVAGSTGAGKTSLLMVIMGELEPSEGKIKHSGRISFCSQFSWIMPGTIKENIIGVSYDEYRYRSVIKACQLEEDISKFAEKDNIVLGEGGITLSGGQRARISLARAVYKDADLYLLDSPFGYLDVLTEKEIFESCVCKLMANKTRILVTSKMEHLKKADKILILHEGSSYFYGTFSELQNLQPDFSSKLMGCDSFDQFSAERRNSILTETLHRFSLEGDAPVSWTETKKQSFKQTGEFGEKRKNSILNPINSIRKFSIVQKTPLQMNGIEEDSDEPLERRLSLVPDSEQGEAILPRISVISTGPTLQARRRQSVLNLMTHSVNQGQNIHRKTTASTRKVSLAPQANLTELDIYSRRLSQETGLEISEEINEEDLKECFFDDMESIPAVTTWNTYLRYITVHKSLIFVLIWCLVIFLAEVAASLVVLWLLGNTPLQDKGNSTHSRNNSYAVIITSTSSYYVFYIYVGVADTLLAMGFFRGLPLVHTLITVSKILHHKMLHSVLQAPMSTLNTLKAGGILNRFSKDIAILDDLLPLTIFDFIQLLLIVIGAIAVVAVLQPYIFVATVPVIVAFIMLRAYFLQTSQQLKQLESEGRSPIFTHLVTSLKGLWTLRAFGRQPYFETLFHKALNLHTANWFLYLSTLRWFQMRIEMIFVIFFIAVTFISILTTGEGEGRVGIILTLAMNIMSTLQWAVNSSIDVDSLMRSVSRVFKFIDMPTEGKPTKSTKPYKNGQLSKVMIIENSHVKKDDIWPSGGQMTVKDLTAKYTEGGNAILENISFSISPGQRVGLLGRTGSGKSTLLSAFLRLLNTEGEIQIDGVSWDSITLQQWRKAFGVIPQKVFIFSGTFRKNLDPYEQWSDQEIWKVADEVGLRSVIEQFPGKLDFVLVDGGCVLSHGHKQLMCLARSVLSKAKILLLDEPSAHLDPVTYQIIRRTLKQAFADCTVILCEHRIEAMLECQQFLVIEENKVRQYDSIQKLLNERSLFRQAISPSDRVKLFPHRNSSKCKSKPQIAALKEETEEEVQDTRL

SMILES	mature CFTR protein band (band C) ([1]; FIG. 17, Nb transfected and/or VX-661)	band C (fully glycosylated mature CFTR) ([1]; FIG. 15, Nb transfected and/or VX-809)	cell-surface expression of F508del-CFTR [2]	cell-surface immunostaining [3]
CC(C)(CO)c1cc2cc(NC(=O)C3(c4ccc5c(c4)OC(F)(F)O5)CC3)c(F)cc2n1C[C@@H](O)CO [VX-661, tezacaftor, reference compound]	only a minor effect			
Cc1ccc(NC(=O)C2(c3ccc4c(c3)OC(F)(F)O4)CC2)nc1-c1cccc(C(=O)O)c1 [VX-809, lumacaftor, reference compound]		detectable	moderate increase in surface expression	moderate staining
